Read-outs that look alike come from different tables or passages of the source.
Key:
white blood cells (WBCs) [1] = assay: Cytokine production in response to anti-CD3/CD28 (Cytometric Bead Assay); conditions: anti-CD3/28
S. liquefaciens = assay: Low bacteria titer study in whole blood; assay type: cell-based; parameters: key: +: some of the replicates of the cultures in the panel grew in under 5 days; −: none of the replicates of the cultures in the panel grew in under 5 days
From the text: (§1) To test whether pathogen inactivation of whole blood was effective in inactivating clinically relevant levels of bacteria which may be present in the whole blood, low titer bacteria studies were done. After pathogen inactivation of whole blood, the whole blood was separated into a red blood cell (RBC) component and platelet rich plasma (PRP) component. A + symbol means that some of the replicates of the cultures in the panel grew in under 5 days. A − symbol means that none of the replicates of the cultures in the panel grew in under 5 days.

S. pyogenes = assay: Low bacteria titer study in whole blood; assay type: cell-based; parameters: key: +: some of the replicates of the cultures in the panel grew in under 5 days; −: none of the replicates of the cultures in the panel grew in under 5 days
From the text: as §1

A. baumannii = assay: Low bacteria titer study in whole blood; assay type: cell-based; parameters: key: +: some of the replicates of the cultures in the panel grew in under 5 days; −: none of the replicates of the cultures in the panel grew in under 5 days; conditions: 110 J/mLRBC (n = 3)
From the text: as §1

Y. enterocolitica = assay: Low bacteria titer study in whole blood; assay type: cell-based; parameters: key: +: some of the replicates of the cultures in the panel grew in under 5 days; −: none of the replicates of the cultures in the panel grew in under 5 days
From the text: as §1

canine parvovirus (CPV) = assay: Virus inactivation in whole blood; assay type: cell-based; conditions: as a function of illumination energy
[2] = system: infectious bovine rhinotracheitis virus (IBR); assay: Virus inactivation in whole blood; assay type: cell-based; conditions: as a function of illumination energy
Hepatitis A (HAV) = assay: Virus inactivation in whole blood; assay type: cell-based; conditions: as a function of illumination energy
T cells = assay: CD69 expression after PMA activation (flow cytometry); assay type: cell-based; conditions: all energies tested (22, 33 and 44 J/mLRBC)
white blood cells (WBCs) [3] = conditions: for % inhibition of proliferation: Allorecognition: treated responders
white blood cells (WBCs) [4] = assay: WBC proliferation in response to anti-CD3/CD28 (thymidine incorporation); conditions: for % inhibition of proliferation: CD3/28
white blood cells (WBCs) [5] = assay: WBC proliferation in response to PHA (thymidine incorporation)
[6] = inflammatory cytokines, 22 J/mlRBC
[7] = inflammatory cytokines, 33 J/mlRBC
[8] = inflammatory cytokines, 44 J/mlRBC

For `Cc1cc2nc3c(=O)[nH]c(=O)nc-3n(C[C@H](O)[C@H](O)[C@H](O)CO)c2cc1C` [riboflavin, 7,8-dimethyl-10-ribityl isoalloxazine], the “% inhibition of IL-10 production” value (white blood cells (WBCs) [1]; TH1/TH2 cytokines, 22 J/mlRBC) was 99 ± 1%, the “% inhibition of TNFα production” value (white blood cells (WBCs) [1]; TH1/TH2 cytokines, 22 J/mlRBC) was 92 ± 15% and the “% inhibition of IFN-γ production” value (white blood cells (WBCs) [1]; TH1/TH2 cytokines, 33 J/mlRBC) was 100 ± 0%. For the same compound, the “% inhibition of IL-2 production” value (white blood cells (WBCs) [1]; TH1/TH2 cytokines, 33 J/mlRBC) was 99 ± 1%, the “% inhibition of IL-4 production” value (white blood cells (WBCs) [1]; TH1/TH2 cytokines, 33 J/mlRBC) was 95 ± 3% and the “% inhibition of IL-5 production” value (white blood cells (WBCs) [1]; TH1/TH2 cytokines, 33 J/mlRBC) was 99 ± 1%. The “% inhibition of IL-10 production” value (white blood cells (WBCs) [1]; TH1/TH2 cytokines, 33 J/mlRBC) was 100 ± 0%, the “% inhibition of TNFα production” value (white blood cells (WBCs) [1]; TH1/TH2 cytokines, 33 J/mlRBC) was 99 ± 1% and the “% inhibition of IFN-γ production” value (white blood cells (WBCs) [1]; TH1/TH2 cytokines, 44 J/mlRBC) was 100 ± 0%. The “% inhibition of IL-2 production” value (white blood cells (WBCs) [1]; TH1/TH2 cytokines, 44 J/mlRBC) was 100 ± 0%, the “% inhibition of IL-4 production” value (white blood cells (WBCs) [1]; TH1/TH2 cytokines, 44 J/mlRBC) was 97 ± 2% and the “% inhibition of IL-5 production” value (white blood cells (WBCs) [1]; TH1/TH2 cytokines, 44 J/mlRBC) was 99 ± 1%. For the same compound, the “% inhibition of IL-10 production” value (white blood cells (WBCs) [1]; TH1/TH2 cytokines, 44 J/mlRBC) was 100 ± 0%, the “% inhibition of TNFα production” value (white blood cells (WBCs) [1]; TH1/TH2 cytokines, 44 J/mlRBC) was 100 ± 0% and the “% inhibition of IL-1β production” value (white blood cells (WBCs) [1]; [6]) was 98 ± 2%. For the same compound, the “% inhibition of IL-6 production” value (white blood cells (WBCs) [1]; [6]) was 99 ± 2%, the “% inhibition of IL-8 production” value (white blood cells (WBCs) [1]; [6]) was 89% and the “% inhibition of IL-10 production” value (white blood cells (WBCs) [1]; [6]) was 99 ± 1%. The “% inhibition of IL-12 p70 production” value (white blood cells (WBCs) [1]; [6]) was 98 ± 4%, the “% inhibition of TNFα production” value (white blood cells (WBCs) [1]; [6]) was 90 ± 12% and the “% inhibition of IL-1β production” value (white blood cells (WBCs) [1]; [7]) was 100 ± 0%. For the same compound, the “% inhibition of IL-6 production” value (white blood cells (WBCs) [1]; [7]) was 100 ± 0%, the “% inhibition of IL-8 production” value (white blood cells (WBCs) [1]; [7]) was 98 ± 2% and the “% inhibition of IL-10 production” value (white blood cells (WBCs) [1]; [7]) was 100 ± 0%. The “% inhibition of IL-12 p70 production” value (white blood cells (WBCs) [1]; [7]) was 99 ± 2%, the “% inhibition of TNFα production” value (white blood cells (WBCs) [1]; [7]) was 100 ± 0% and the “% inhibition of IL-1β production” value (white blood cells (WBCs) [1]; [8]) was 100 ± 0%. The “% inhibition of IL-6 production” value (white blood cells (WBCs) [1]; [8]) was 100 ± 0%, the “% inhibition of IL-8 production” value (white blood cells (WBCs) [1]; [8]) was 100 ± 0% and the “% inhibition of IL-10 production” value (white blood cells (WBCs) [1]; [8]) was 100 ± 0%. The “% inhibition of IL-12 p70 production” value (white blood cells (WBCs) [1]; [8]) was 97 ± 4%, the “% inhibition of TNFα production” value (white blood cells (WBCs) [1]; [8]) was 100 ± 0% and the “Bacteria detected (+) or not detected (−) after treatment” value (from here on “Bacteria detected (+) or not detected”) (S. liquefaciens; 80 J/mLRBC (n = 3), PRP) was “−”. The “Bacteria detected (+) or not detected” value (S. liquefaciens; 80 J/mLRBC (n = 3), RBC) was “−”, the “Bacteria detected (+) or not detected” value (S. liquefaciens; 110 J/mLRBC (n = 3), PRP) was “−” and the “Bacteria detected (+) or not detected” value (S. liquefaciens; 110 J/mLRBC (n = 3), RBC) was “−”. For the same compound, the “Bacteria detected (+) or not detected” value (S. pyogenes; 80 J/mLRBC (n = 3), PRP) was “−”, the “Bacteria detected (+) or not detected” value (S. pyogenes; 110 J/mLRBC (n = 3), PRP) was “−” and the “Bacteria detected (+) or not detected” value (S. pyogenes; 110 J/mLRBC (n = 3), RBC) was “−”. The “Bacteria detected (+) or not detected” value (A. baumannii; PRP) was “−”, the “Bacteria detected (+) or not detected” value (A. baumannii; RBC) was “−” and the “Bacteria detected (+) or not detected” value (Y. enterocolitica; 80 J/mLRBC (n = 3), PRP) was “−”. The “Bacteria detected (+) or not detected” value (Y. enterocolitica; 80 J/mLRBC (n = 3), RBC) was “−”, the “Bacteria detected (+) or not detected” value (Y. enterocolitica; 110 J/mLRBC (n = 3), PRP) was “−” and the “Bacteria detected (+) or not detected” value (Y. enterocolitica; 110 J/mLRBC (n = 3), RBC) was “−”. The “log reduction of virus” value (canine parvovirus (CPV)) was “increases linearly with respect to energy”, the “log reduction of virus” value [2] was “increases linearly with respect to energy” and the “log reduction of virus” value (Hepatitis A (HAV)) was “increases linearly with respect to energy”. The “expression of CD69 on T cells after PMA activation” value (T cells) was “inhibited expression of CD69”, the “% inhibition of proliferation” value (white blood cells (WBCs) [3]; 22 J/mlRBC) was 95 ± 3% and the “% inhibition of proliferation” value (white blood cells (WBCs) [3]; 33 J/mlRBC) was 95 ± 2%. The “% inhibition of proliferation” value (white blood cells (WBCs) [3]; 44 J/mlRBC) was 96 ± 2%, the “proliferation of treated WBCs in response to allogeneic stimulator cells” value (white blood cells (WBCs) [3]; treated WBCs as responder cells in MLC) was “not able to proliferate” and the “% inhibition of proliferation” value (white blood cells (WBCs) [4]; 22 J/mlRBC) was 93 ± 2%. For the same compound, the “% inhibition of proliferation” value (white blood cells (WBCs) [4]; 33 J/mlRBC) was 99 ± 0%, the “% inhibition of proliferation” value (white blood cells (WBCs) [4]; 44 J/mlRBC) was 99 ± 0% and the “induced proliferation of treated WBCs” value (white blood cells (WBCs) [4]; plate-bound anti-CD3 plus anti-CD28 antibodies, 33 J/mlRBC and above, 3 days of incubation) was “no detectable induced proliferation”. For the same compound, the “% inhibition of proliferation” value (white blood cells (WBCs) [5]; 22 J/mlRBC) was 98 ± 1%, the “% inhibition of proliferation” value (white blood cells (WBCs) [5]; 33 J/mlRBC) was 99 ± 1% and the “induced proliferation of treated WBCs” value (white blood cells (WBCs) [5]; 33 J/mlRBC and above, 3 days of incubation) was “no detectable induced proliferation”. For the same compound, the “% inhibition of proliferation” value (white blood cells (WBCs) [5]; 44 J/mlRBC) was 99 ± 0%.

Source: patent publication US20080299538A1, “Pathogen Inactivation of Whole Blood” (CARIDIANBCT BIOTECHNOLOGIES, LLC, priority 2003, published 2008)
